{"source": "patent US20250215087A1", "about": "“COMBINATION THERAPY OF KRAS INHIBITOR AND TREG DEPLETING AGENT” (Bristol-Myers Squibb Company, priority 2023, published 2025)", "key": {"CCR4": {"target": "T1, CCR4 (Homo sapiens, UniProt P51679)", "T1 construct": "host or cells: Tregs, conventional CD4+ and CD8+ T cells (in vivo, cited study)", "T1 sequence (P51679 1-360)": "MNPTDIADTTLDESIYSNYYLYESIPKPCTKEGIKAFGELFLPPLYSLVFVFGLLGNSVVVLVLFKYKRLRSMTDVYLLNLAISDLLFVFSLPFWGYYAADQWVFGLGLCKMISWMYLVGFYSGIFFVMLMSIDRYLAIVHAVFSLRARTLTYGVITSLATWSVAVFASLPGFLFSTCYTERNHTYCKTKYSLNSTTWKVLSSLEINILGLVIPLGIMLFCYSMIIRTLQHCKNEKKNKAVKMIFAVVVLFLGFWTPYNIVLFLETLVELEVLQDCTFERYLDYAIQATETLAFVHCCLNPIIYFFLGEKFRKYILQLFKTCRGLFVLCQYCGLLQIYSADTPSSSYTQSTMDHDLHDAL", "settings": "Kurose et al. 2015; cited from earlier work"}, "KRAS-G12C mutant NSCLC": {"system": "KRAS-G12C mutant NSCLC", "settings": "clinical trials; cited from earlier work"}, "[1]": {"system": "Lewis Lung (3LL) carcinoma model", "settings": "van Maldegem et al. 2021, cited from earlier work"}, "[2]": {"system": "Lewis Lung (3LL) carcinoma model", "experiment": "Imaging mass cytometry of Lewis Lung (3LL) carcinoma lungs after 7 days MRTX1257 or Vehicle; spatial community analysis", "assay_type": "in vivo, C57BL/6 mice", "description": "Two datasets of IMC data generated from an in vivo experiment in which the Lewis Lung (3LL) carcinoma model was treated with the KRAS-G12C inhibitor MRTX1257 for 7 days prior to harvesting of the lungs were published previously in van Maldegem et al. (2021), Nat. Commun. 12:5906 (dataset 1) and Mugarza et al. (2022), Sci. Adv. 8: eabm8780 (dataset 2).\nFollowing 3 weeks, mice were treated with either 50 mg/kg MRTX1257 or Vehicle for 7 consecutive days. Mice were sacrificed on day 8 and lungs were harvested and frozen. Tumors of 3 mice from each treatment group for dataset 1 and 4 mice from each treatment group for dataset 2 were processed for imaging mass cytometry. Tissue slices were stained with a cocktail of antibodies conjugated to heavy metal isotopes and images were obtained using a Hyperion Imaging Mass Cytometer (Standard BioTools). Different antibody panels were used for the generation of datasets 1 and 2 (FIGS. 1A and 1B). In total, 6 images were acquired from both Vehicle and MRTX1257 groups for dataset 1, and the Vehicle group for dataset 2, and 5 images were acquired from the MRTX1257 group for dataset 2.\nFor further details on the in vivo study and IMC, including tissue processing, antibody staining, imaging acquisition and cell typing, reference is generally made to the Materials and Methods and Supplementary Materials provided by van Maldegem et al. (2021) and Mugarza et al. (2022), which are herewith incorporated by reference.\nAs described in van Maldegem et al. (2021), cellular neighbors were identified during segmentation using the CellProfiler module ‘Measure Object Neighbours’, following steps to identify individual cells. Neighbors were identified if a cell's boundary was within 15 μm (pixels) of the cell boundary of interest. Neighbor information was obtained for every cell object in each tissue.\nEach ‘neighborhood’ was identified as a single cell and its local neighbors; defined by 15 μm object relationship output data from segmentation.\nExpression values for each marker were normalized to the mean intensity of Xenon134. Following this, the data for each image across both treatment groups was concatenated, creating a size of 282,837 cells for dataset 1 and 626,070 cells for dataset 2. Each channel was then scaled to the 99th percentile. […] These clusters formed the basis to identify cell types present in the tissue, including tumor, lymphocytes, myeloid cells, fibroblasts, and endothelium. More details are available in van Maldegem et al., 2021 for dataset 1 and Mugarza et al., 2022 for dataset 2.\nAs described in van Maldegem et al., 2021, the neighbourhood method developed by Bodenmiller (https://github.com/BodenmillerGroup/neighbourhood; Schapiro et al., 2017, histoCAT: analysis of cell phenotypes and interactions in multiplex image cytometry data. Nat Methods 14, 873-876) was used to identify the enrichment of cell types within the 15-pixel neighborhood of each cell compared to random permutations of events, with a modification of only calculating enrichment in the CD8^+ T cell neighborhood, separated by community and using 1000 rounds of permutation. This was carried out for the community names T cell/normal adjacent community (T/NA), T cell/Type 1 macrophage community (T/M1), T cell/Dendritic cell community (T/DC), T cell/Type 2 macrophage community 1 (T/M2_1) and T cell/Type 2 macrophage community 2 (T/M2_2) communities for the MRTX1257 treatment setting.\nNeighborhood enrichment analysis was also used for exploring cell pair relationships in the presence or absence of Tregs within the T/DC and T/M2_2 communities following MRTX treatment. Enrichment scores were only deemed statistically significant if the p-value when comparing real neighbors to randomized neighbors was ≤0.01."}, "[3]": {"system": "orthotopic Lewis lung (3LL) NSCLC tumors", "settings": "seven consecutive days of treatment; van Maldegem et al. 2021; cited from earlier work"}, "advanced melanoma": {"system": "advanced melanoma", "settings": "Hodi et al. 2010; cited from earlier work"}}, "data": [{"compound": "mogamulizumab: humanized, afucosylated monoclonal antibody targeting CC chemokine receptor 4 (CCR4)", "values": [{"measurement": "CD8+ T cell numbers", "setting": "CCR4", "value": "modest reductions"}, {"measurement": "Treg depletion", "setting": "CCR4", "value": "achieved"}, {"measurement": "conventional CD4+ T cells", "setting": "CCR4", "value": "significant depletion"}]}, {"compound": "C=CC(=O)N1CCN(c2nc(=O)n(-c3c(C)ccnc3C(C)C)c3nc(-c4c(O)cccc4F)c(F)cc23)[C@@H](C)C1", "note": "[sotorasib]", "values": [{"measurement": "patients achieving temporary disease control", "setting": "KRAS-G12C mutant NSCLC", "value": 80, "unit": "%"}]}, {"compound": "C=CC(=O)N1CCN(c2nc(OC[C@@H]3CCCN3C)nc3c2CCN(c2cccc4cccc(C)c24)C3)C[C@@H]1CC#N", "note": "[MRTX1257]", "values": [{"measurement": "immune phenotype of the tumor microenvironment", "setting": "[1]; 50 mg/kg MRTX1257 for 7 days vs Vehicle", "value": "remodelled into a more inflammatory immune infiltrated TME"}, {"measurement": "type 2 macrophage number and activation markers", "setting": "[1]; previously described", "value": "increased in cell number and upregulated activation markers such as PD-L1 and MHC-II"}, {"measurement": "frequency of c-casp3+ tumor cells in the CD8+ T cell close neighborhood", "setting": "[2]; T/DC community, 'No Tregs' neighborhoods, FIG. 25", "value": "increased"}, {"measurement": "Ki67 expression on CD4+ and CD8+ T cells", "setting": "[2]; T/DC community, dataset 2, FIG. 19A", "value": "significant increase"}, {"measurement": "occurrences of a c-casp3+ tumor cell in the 15-pixel neighborhood of a CD8+ T cell", "setting": "[2]; T/DC community, dataset 2, FIG. 19B", "value": "increased"}, {"measurement": "images with CD4+ T cells and dendritic cells significantly enriched in the neighborhood of a CD8+ T cell", "setting": "[2]; T/DC community, vs random permutation, FIG. 21A", "value": "at least five out of the six images"}, {"measurement": "images with Treg cells significantly enriched in the neighborhood of CD8+ T cells", "setting": "[2]; T/DC community, FIG. 21A", "value": "3 out of the 6"}, {"measurement": "mean expression of PD-1 on CD8+ T cells", "setting": "[2]; T/DC, T/M2_1 and T/M2_2 communities, most pronounced in T/DC, FIGS. 16A-16B", "value": "an increase occurred"}, {"measurement": "PD-L1 expression on dendritic cells (accompanied by high CD86)", "setting": "[2]; T/DC, T/M2_1 and T/M2_2 communities, FIGS. 13A-13C", "value": "increased PD-L1 expression"}, {"measurement": "interactions between tumor cells and neutrophils (communities 5, 13, 14, 15)", "setting": "[2]; dataset 1, MRTX1257 vs Vehicle, FIG. 5", "value": "lost or dispersed"}, {"measurement": "mean expression of CXCL9 on dendritic cells and macrophages", "setting": "[2]; dataset 2, highest in T/DC community, FIG. 14", "value": "increased"}, {"measurement": "mean expression of PD-1 on regulatory T cells", "setting": "[2]; mainly in the T/DC community, FIG. 16D", "value": "higher PD-1 expression"}, {"measurement": "count of regulatory T cells", "setting": "[2]; most notably in T/DC and T/M2_2 communities, FIG. 22", "value": "increased in size"}, {"measurement": "spatial distribution and neighborhood environment of CD8+ T cells", "setting": "[2]; top 5 CD8+ T cell rich communities, MRTX1257 vs Vehicle, FIG. 11", "value": "shift in spatial distribution and neighborhood environment"}, {"measurement": "percentage of PD-1+ CD8+ T cells that are positive for LAG-3", "setting": "[2]; tumor-associated communities following MRTX treatment, FIG. 17B", "value": "~30", "unit": "%"}, {"measurement": "tumor regression and growth", "setting": "[3]", "value": "tumors did not regress although tumor growth was inhibited"}]}, {"compound": "Ipilimumab: human anti-CTLA-4 antibody with IgG1 constant region, SEQ ID NO: 150 and 151", "values": [{"measurement": "overall survival", "setting": "advanced melanoma", "value": "improvement in overall survival"}]}]}
